Where “and” joins values, the source holds several entries; their conditions need not be identical. Equal values may be shown once.
Columns and labels:
[1] = system: diamond back moth (Plutella xylostella); assay: pesticidal test against diamond back moth; details: liquid composition containing 500 ppm by weight of compound
Description: (§1) The activities of individual compounds of formula (I) were determined using a variety of pests. The pests were treated with a liquid composition containing 500 parts per million (ppm) by weight of a compound of formula (I). Each composition was made by dissolving the compound in an acetone and ethanol (50:50 by volume) mixture and diluting the solution with water containing 0.05% by volume of a wetting agent, SYNPERONIC NP8, until the liquid composition contained the required concentration of the compound.
(§2) The test procedure adopted with regard to each pest was essentially the same and comprised supporting a number of the pests on a medium, which was usually a substrate, a host plant or a foodstuff on which the pests feed, and treating either or both the medium and the pests with a composition. Pest mortality was assessed usually between two and five days after treatment.
(§3) Similar tests were conducted against, independently, two-spotted spider mites (Tetranychus urticae), fruit flies (Drosophila melanogaster), tobacco budworms (Heliothis virescens), diamond back moth (Plutella xylostella) and corn root worm (Diabrotica balteata).

[2] = system: peach potato aphids (Myzus persicae); details: 500 ppm by weight; infested Chinese cabbage leaves sprayed; mortality assessed after three days
Description: (§4) This Example illustrates the pesticidal/insecticidal properties of compounds of formula (I). The activities of individual compounds of formula (I) were determined using a variety of pests. The pests were treated with a liquid composition containing 500 parts per million (ppm) by weight of a compound of formula (I). Each composition was made by dissolving the compound in an acetone and ethanol (50:50 by volume) mixture and diluting the solution with water containing 0.05% by volume of a wetting agent, SYNPERONIC NP8, until the liquid composition contained the required concentration of the compound.
as §2
(§5) In each test against peach potato aphids (Myzus persicae), Chinese cabbage leaves were infested with aphids, the infested leaves were sprayed with a test composition and pest mortality was assessed after three days.

[3] = system: corn root worm (Diabrotica balteata); assay: pesticidal test against corn root worm; details: liquid composition containing 500 ppm by weight of compound
Description: as §1, §2, §3

[4] = system: two-spotted spider mites (Tetranychus urticae); details: liquid composition containing 500 ppm by weight of compound
Description: as §1, §2, §3

[5] = system: tobacco budworms (Heliothis virescens); assay: pesticidal test against tobacco budworms; details: liquid composition containing 500 ppm by weight of compound
Description: as §1, §2, §3

[6] = system: fruit flies (Drosophila melanogaster); assay: pesticidal test against fruit flies; details: liquid composition containing 500 ppm by weight of compound
Description: as §1, §2, §3

[7] = system: peach potato aphids (Myzus persicae); assay: whole plant or invertebrate; details: 72 h, read-out: mortality (score) Mp
Description: as §4, §2, §5

[8] = system: Blumeria graminis f.sp. tritici (ERYSGT); assay: foliar fungicide test on wheat (Example 19); format: in vivo; details: 100 ppm foliar (Prot) application on wheat; inoculated 6 hours or one day after application
[9] = system: Plasmopara viticola (PLASVI); assay: foliar fungicide test on vines (Example 19); format: in vivo; details: 100 ppm foliar (Prot) application on vines; inoculated 6 hours or one day after application
[10] = system: Pyricularia oryzae (PYRIOR); format: in vivo; details: 100 ppm foliar spray on rice; inoculated one day after chemical application (Prot)
[11] = system: Venturia inaequalis (VENTIN); assay: foliar fungicide test on apples (Example 18); format: in vivo; details: 100 ppm foliar spray on apples; inoculated one day after chemical application (Prot)
[12] = system: Puccinia recondita (PUCCRT); assay: foliar fungicide test on wheat (Example 18); format: in vivo; details: 100 ppm foliar spray on wheat; inoculated one day after chemical application (Prot)
[13] = system: Uncinula necator (UNCINE); assay: foliar fungicide test on vines (Example 18); format: in vivo; details: 100 ppm foliar spray on vines; for UNCINE Erad, PRCO (Percentage Reduction from Control): inoculated one day before chemical application (Erad)
[14] = system: Phytophthora infestans lycopersici (PHYTIN); format: in vivo; details: 100 ppm foliar spray on tomatoes; inoculated one day after chemical application (Prot)

Compound	mortality (score) Px [1]	mortality (score) Mp [2]	mortality (score) Db [3]	mortality (score) Tu [4]	mortality (score) Hv [5]	mortality (score) Dm [6]	other results
CCOCN(C(=O)/C=C/c1ccc2oc(CC(C)(C)C)nc2c1)c1snc(C)c1Cl [Table 81 Compound 77]	0 (represents less than 40% mortality)	0 (represents less than 40% mortality)	9 (9 indicates 80-100% mortality)	0 (represents less than 40% mortality)	0 (represents less than 40% mortality)	0 (represents less than 40% mortality)	–
Cc1nsc(NC(=O)C(C)(F)c2ccc3oc(CC(C)(C)C)nc3c2)c1Cl (stereo not shown) [Table 6 Compound 7, N-(4-chloro-3-methylisothiazol-5-yl)-2-[2-(2,2-dimethylpropyl)benzoxazol-5-yl]-2-fluoropropionamide]	–	–	9 (9 indicates 80-100% mortality)	–	9 (9 indicates 80-100% mortality)	5 (5 indicates 40-79% mortality)	mortality at 500 ppm [7]: 80 to 100%
Cc1nsc(NC(=O)C(SC(C)C)c2ccc3oc(CC(C)(C)C)nc3c2)c1Cl (stereo not shown) [Table 22 Compound 7]	–	0 (represents less than 40% mortality)	–	9 (9 indicates 80-100% mortality)	–	–	–
CC(=O)OCC(C(=O)Nc1snc(C)c1Cl)c1ccc2oc(CC(C)(C)C)nc2c1 (stereo not shown) [Table 28 Compound 7]	–	5 (5 indicates 40-79% mortality)	0 (represents less than 40% mortality)	–	9 (9 indicates 80-100% mortality)	0 (represents less than 40% mortality)	ERYSGT Prot, PRCO (Percentage Reduction from Control) [8]: 98; PLASVI Prot, PRCO (Percentage Reduction from Control) [9]: 97
CCc1nsc(NC(=O)C(C)c2ccc3sc(CC(C)C)nc3c2)c1Cl (stereo not shown) [Table 39 Compound 86, N-(4-chloro-3-ethylisothiazol-5-yl)-2-[2-(2-methylpropyl)benzothiazol-5-yl]propionamide]	9 (9 indicates 80-100% mortality)	–	9 (9 indicates 80-100% mortality)	–	9 (9 indicates 80-100% mortality)	0 (represents less than 40% mortality)	mortality at 500 ppm [7]: 40 to 79%
CCNC=C(C(=O)Nc1snc(C)c1Cl)c1ccc2oc(CC(C)(C)C)nc2c1 [Table 15 Compound 7, N-(4-chloro-3-methylisothiazol-5-yl)-α-[(ethylamino)methylene]-[2-(2,2-dimeth-ylpropyl)benzoxazol-5-yl]acetamide]	–	–	–	9 (9 indicates 80-100% mortality)	–	–	mortality at 500 ppm [7]: 80 to 100%; PYRIOR Prot, PRCO (Percentage Reduction from Control) [10]: 57; VENTIN Prot, PRCO (Percentage Reduction from Control) [11]: 53; PUCCRT Prot, PRCO (Percentage Reduction from Control) [12]: 100; UNCINE Erad, PRCO (Percentage Reduction from Control) [13]: 100
Cc1nsc(NC(=O)C(C)c2ccc3oc(CC(C)(C)C)nc3c2)c1Cl (stereo not shown) [Table 1 Compound 7, N-(4-chloro-3-methylisothiazol-5-yl)-2-[2-(2,2-dimethylpropyl)benzoxazol-5-yl]propionamide]	–	–	–	–	–	–	mortality at 500 ppm [7]: 40 to 79%; PYRIOR Prot, PRCO (Percentage Reduction from Control) [10]: 24; PUCCRT Prot, PRCO (Percentage Reduction from Control) [12]: 85; UNCINE Erad, PRCO (Percentage Reduction from Control) [13]: 100
Cc1nsc(NC(=O)C(C)c2ccc3oc(CC(F)(F)F)nc3c2)c1Cl (stereo not shown) [Table 1 Compound 8, N-(4-chloro-3-methylisothiazol-5-yl)-2-[2-(2,2,2-trifluoroethyl)benzoxazol-5-yl]propionamide]	9 (9 indicates 80-100% mortality)	–	9 (9 indicates 80-100% mortality)	–	9 (9 indicates 80-100% mortality)	0 (represents less than 40% mortality)	mortality at 500 ppm [7]: 40 to 79%
Cc1nsc(NC(=O)C(O)c2ccc3oc(CC(C)(C)C)nc3c2)c1Cl (stereo not shown) [Table 7 Compound 7]	9 (9 indicates 80-100% mortality)	0 (represents less than 40% mortality)	–	9 (9 indicates 80-100% mortality)	–	9 (9 indicates 80-100% mortality)	–
CCOC(=O)CNN=C(C(=O)Nc1snc(C)c1Cl)c1ccc2oc(CC(C)(C)C)nc2c1 [Table 30 Compound 7]	–	9 (9 indicates 80-100% mortality)	–	–	–	–	ERYSGT Prot, PRCO (Percentage Reduction from Control) [8]: 100
C=C(C(=O)Nc1snc(C)c1Cl)c1ccc2oc(CC(C)(C)C)nc2c1 [Table 11 Compound 7]	–	–	–	–	–	–	PHYTIN Prot, PRCO (Percentage Reduction from Control) [14]: 50; PYRIOR Prot, PRCO (Percentage Reduction from Control) [10]: 66; PUCCRT Prot, PRCO (Percentage Reduction from Control) [12]: 27; UNCINE Prot, PRCO (Percentage Reduction from Control) ([13]; inoculated one day after chemical application (Prot)): 73
Cc1nsc(NC(=O)C(c2ccc3oc(CC(C)(C)C)nc3c2)C(C)C)c1Cl (stereo not shown) [Table 3 Compound 7]	–	–	–	–	–	–	PHYTIN Prot, PRCO (Percentage Reduction from Control) [14]: 20; PUCCRT Prot, PRCO (Percentage Reduction from Control) [12]: 19; UNCINE Erad, PRCO (Percentage Reduction from Control) [13]: 91
CCc1nsc(NC(=O)C(F)c2ccc3sc(CC(C)(C)C)nc3c2)c1Cl (stereo not shown) [Table 42 Compound 87]	9 (9 indicates 80-100% mortality)	9 (9 indicates 80-100% mortality)	9 (9 indicates 80-100% mortality)	–	9 (9 indicates 80-100% mortality)	9 (9 indicates 80-100% mortality)	–
Cc1nsc(NC(=O)C(=O)c2ccc3oc(CC(C)(C)C)nc3c2)c1Cl [Table 10 Compound 7]	9 (9 indicates 80-100% mortality)	9 (9 indicates 80-100% mortality)	–	0 (represents less than 40% mortality)	–	–	–
CCOCN(C(=O)C(C)c1ccc2oc(CC(F)(F)F)nc2c1)c1snc(C)c1Cl (stereo not shown) [Table 1 Compound 78]	9 (9 indicates 80-100% mortality)	9 (9 indicates 80-100% mortality)	9 (9 indicates 80-100% mortality)	–	9 (9 indicates 80-100% mortality)	9 (9 indicates 80-100% mortality)	–
CCc1nsc(NC(=O)C(OC)c2ccc3oc(CC(C)C)nc3c2)c1Cl (stereo not shown) [Table 9 Compound 86]	9 (9 indicates 80-100% mortality)	9 (9 indicates 80-100% mortality)	9 (9 indicates 80-100% mortality)	–	9 (9 indicates 80-100% mortality)	5 (5 indicates 40-79% mortality)	–
CCOCN(C(=O)C(F)c1ccc2oc(CC(C)(C)C)nc2c1)c1snc(CC)c1Cl (stereo not shown) [Table 5 Compound 157]	9 (9 indicates 80-100% mortality)	9 (9 indicates 80-100% mortality)	9 (9 indicates 80-100% mortality)	–	9 (9 indicates 80-100% mortality)	9 (9 indicates 80-100% mortality)	–
Cc1nsc(NC(=O)C(=CNCc2ccc(Cl)cc2)c2ccc3oc(CC(C)(C)C)nc3c2)c1Cl [Table 19 Compound 7]	–	5 (5 indicates 40-79% mortality) and 9 (9 indicates 80-100% mortality)	–	9 (9 indicates 80-100% mortality)	–	–	–

From US6703347B2, “Isothiazole derivatives and their use as pesticides” (Syngenta Limited, priority 2000, dated 2004)
